Experimental data published in publication PMC10387993, “New pyrimidine-N-β-D-glucosides: synthesis, biological evaluation, and molecular docking investigations” (Turkish Journal of Chemistry, 2023).
In brackets after ≈: the same amount, converted by molar mass. Like-named read-outs stand apart in the source and are kept apart here.

Assays:
[1] = LDH cytotoxic activity assay, Hep3B; type: cell-based; conditions: human, Hep3B cells, 25 μg/mL
Description: (§1) The cell lines were cultured in a cell medium (Dulbecco’s modified eagle’s or RPMI 1640) enriched with 10% (v/v) fetal bovine serum and 2% (v/v) Penicillin-Streptomycin (10,000 U/mL). First, old medium was removed out of the flask when the cells reached approximately 80% confluence. Next, cells were taken from the flasks surface using trypsin-EDTA solution and then subjected to centrifugation. Following, the cell pellet was suspended with fresh media and was inoculated into wells.
(§2) Approximately 5 × 10^3 cells in 100 μL were placed into 96-well plates as triplicates and treated with 25, 50, 75, and 100 μg/mL concentrations of test compounds at 37 °C with 5% CO2 for 24 h. LDH activity was obtained by determining absorbance at 492–630 nm using a microplate reader.

[2] = LDH cytotoxic activity assay, A549; type: cell-based; conditions: human, A549 cells, A549, 25 μg/mL
Description: as §1, §2

[3] = LDH cytotoxic activity assay, HT29; type: cell-based; conditions: human, HT29 cells, HT29, 25 μg/mL
Description: as §1, §2

calf thymus DNA (CT-DNA) = conditions: CT-DNA binding experiments in the literature ref [32]–[33]; cited from earlier work
[4] = LDH cytotoxic activity assay, FL; type: cell-based; conditions: human, FL cells (normal cells), FL, 25 μg/mL
Description: as §1, §2

C6 (Rat brain glioma) = assay: cells; type: cell-based; conditions: C6, MTT
Description: as §1
(§3) A cell suspension containing approximately 1 × 10^4 cells in 100 μL was seeded into the wells of 96-well culture plates. […]. The final volume of the wells was set to 200 μL by medium. Cell proliferation assay was evaluated by MTT (yellow tetrazolium MTT (3-(4,5-dimethylthiazolyl-2)-2,5-diphenyltetrazolium bromide) methods. Briefly, an MTT stock solution (5 mg of MTT/mL of distilled water) was filtered and kept at −20 °C until use. The cells were exposed to an MTT reagent (consisting of one parts of MTT stock solutions and nine parts of fresh RPMI 1640 without phenol red) for 4 h to form MTT formazan dye followed by the dye dissolved in DMSO with Sorenson’s buffer for 30 min at room temperature and then the plate was measured at 560 nm, with 690 nm as a reference interval, using a microplate reader. Each experiment was repeated at least three times for each cell line.
(§4) IC50 value is a concentration that inhibits half of the cells in vitro. The half maximal inhibitory concentration (IC50) of the test and control compounds was calculated using XLfit5 or excel spreadsheet and represent in μM at 95% confidence intervals. The proliferation assay results were expressed as the percent inhibition according to the following formula: % Inhibition = [1 - (Absorbance of Treatments /Absorbance of DMSO) × 100]. Three dose response parameters (GI50, TGI, LC50) were calculated according to the following formulas using the absorbance measurements of time zero (Tz), control growth (C), and test growth in the presence of drug (Ti). Growth inhibition of 50% (GI50) was calculated from [(Ti-Tz)/(C-Tz)] × 100 = 50, which is the drug concentration resulting in a 50% reduction in the net growth increase in control cells during the drug incubation. The drug concentration resulting in total growth inhibition (TGI) was calculated from Ti = Tz. The LC50 indicating a net loss of cells following treatment was calculated from [(Ti-Tz)/Tz] × 100 = −50.

MCF7 = assay: cells; type: cell-based; conditions: MCF7, MTT
Description: as §1, §3, §4

HeLa = assay: cells; type: cell-based; conditions: MTT
Description: as §1, §3, §4

HT29 = assay: cells; type: cell-based; conditions: HT29, MTT
Description: as §1, §3, §4

Hep3B = assay: cells; type: cell-based; conditions: MTT
Description: as §1, §3, §4

A549 = assay: cells; type: cell-based; conditions: A549, MTT
Description: as §1, §3, §4

[5] = LDH cytotoxic activity assay, C6; type: cell-based; conditions: rat, C6 glioma cells, C6, 25 μg/mL
Description: as §1, §2

[6] = LDH cytotoxic activity assay, HeLa; type: cell-based; conditions: human, HeLa cells, 25 μg/mL
Description: as §1, §2

normal FL cells = assay: cells; type: cell-based; conditions: FL normal cells, MTT
Description: as §1, §3, §4

[7] = LDH cytotoxic activity assay, MCF7; type: cell-based; conditions: human, MCF7 cells, MCF7, 25 μg/mL
Description: as §1, §2

Question: Which results are given for `O=c1[nH]cc(F)c(=O)[nH]1` [Compound 5FU, 5-fluorouracil, reference compound]?
Answer: cytotoxicity at 24 h, 25 μg/mL [1]: 9.67%; cytotoxicity at 24 h, 25 μg/mL [2]: 9.19%; cytotoxicity at 24 h, 25 μg/mL [3]: 7.91%; binding constant (Kb) (calf thymus DNA (CT-DNA)): 97000 M⁻¹; cytotoxicity at 24 h, 25 μg/mL [4]: 8.44%; IC50 (C6 (Rat brain glioma); Rattus norvegicus, read-out: IC50): 54.3 µg/mL (≈ 417 µM); IC50 (MCF7; Homo sapiens, read-out: IC50): 74.2 µg/mL (≈ 570 µM); IC50 (HeLa; Homo sapiens, read-out: IC50): 61.6 µg/mL (≈ 473 µM); IC50 (HT29; Homo sapiens, HT-29, read-out: IC50): 65.2 µg/mL (≈ 501 µM); IC50 (Hep3B; Homo sapiens, read-out: IC50): 62.9 µg/mL (≈ 483 µM); IC50 (A549; Homo sapiens, read-out: IC50): 69.8 µg/mL (≈ 537 µM); cytotoxicity at 24 h, 25 μg/mL [5]: 10%; cytotoxicity at 24 h, 25 μg/mL [6]: 8.83%; IC50 (normal FL cells; read-out: IC50): 59.1 µg/mL (≈ 454 µM); cytotoxicity at 24 h, 25 μg/mL [7]: 7.69%

Question: With `N.N.[Cl][Pt][Cl]` [Cisplatin, cisplatin, reference compound] as the compound, how does the “binding constant (Kb)” value (calf thymus DNA (CT-DNA)) read?
Answer: 57300 M⁻¹

Question: And the IC50 (C6 (Rat brain glioma))?
Answer: 33.08 µg/mL

Question: And the IC50 (MCF7)?
Answer: 63.79 µg/mL

Question: What about the IC50 (HeLa) of the same compound?
Answer: 50.29 µg/mL

Question: What about the IC50 (HT29) of the same compound?
Answer: 40.39 µg/mL

Question: And the IC50 (Hep3B)?
Answer: 48.69 µg/mL

Question: And the IC50 (A549)?
Answer: 60.49 µg/mL

Question: What about the IC50 (normal FL cells) of the same compound?
Answer: 52.79 µg/mL
